According to patent US4698352A, “4-oxo-1,4-dihydronicotinic acid derivatives, salts thereof, and antibacterial agents containing the same” (Toyama Chemical Co., Ltd., priority 1982, dated 1987):
≈ marks a conversion by molar mass, not a printed value. Read-outs that look alike come from different tables or passages of the source.

Key:
Assay in all cases: Antibacterial activity (MIC), agar dilution
Format in all cases: cell-based
E. coli TK-111 = details: Escherichia coli, TK111, 20 h
Source text: (§1) The amount of bacteria inoculated was 10^4 cells per plate (10^6 cells per ml).

E. coli NIHJ JC-2 = details: Escherichia coli, NIHJJC2, 20 h
Source text: as §1

Pro. vulgaris GN3027 = details: Proteus vulgaris, GN3027, 20 h, Pro. vulgaris GN3027; 10^6 cells per ml; 37° C., 20 hours; read-out: MIC
Source text: as §1

Pro. morganii T-216 = details: Morganella morganii, 37° C.
Source text: as §1

Ps. aeruginosa S-68 = details: Pseudomonas aeruginosa
Source text: as §1

St. aureus FDA209P = details: Staphylococcus aureus, FDA209P, 20 h
Source text: as §1

Kl. pneumoniae Y-50 = details: Klebsiella pneumoniae, Y50, 20 h, 10^6 cells per ml, 37° C., read-out: MIC
Source text: as §1

Pro. mirabilis T-111 = details: Proteus mirabilis, 37° C.
Source text: as §1

Kl. pneumoniae Y-41 = details: Klebsiella pneumoniae, Y41, 10^6 cells per ml, 37° C., 20 hours, read-out: MIC
Source text: as §1

Ps. aeruginosa IFO3445 = details: Pseudomonas aeruginosa
Source text: as §1

Ent. cloacae IID977 = details: Enterobacter cloacae, IID977, 20 h
Source text: as §1

Aci. antitratus A-6 = details: 20 h
Source text: as §1

Ps. aeruginosa GN918** = details: Pseudomonas aeruginosa, Ps. aeruginosa GN918, cephalospolinase-producing, 10^6 cells per ml
Source text: as §1
(§2) ** Cephalospolinase-producing bacteria

Pro. vulgaris GN76** = details: Proteus vulgaris
Source text: as §1, §2

E. coli GN5482** = details: Escherichia coli, 20 h; E. coli GN5482, cephalospolinase-producing; 10^6 cells per ml; read-out: MIC
Source text: as §1, §2

Kl. pneumoniae Y-4* = details: Klebsiella pneumoniae, 20 h, Kl. pneumoniae Y-4, penicillinase-producing; 10^6 cells per ml; read-out: MIC
Source text: as §1
(§3) * Penicillinase-producing bacteria

Ps. aeruginosa GN3379* = details: Pseudomonas aeruginosa, Ps. aeruginosa GN3379, penicillinase-producing, 10^6 cells per ml
Source text: as §1, §3

E. coli TK-3* = details: Escherichia coli, 20 h
Source text: as §1, §3

St. aureus F-137* = details: Staphylococcus aureus, 20 h
Source text: as §1, §3

[1] = E. coli TK-111, 10^6 cells per ml, 37° C., 20 hours, read-out: MIC
[2] = E. coli NIHJ JC-2, 10^6 cells per ml, 37° C., 20 hours, read-out: MIC
[3] = T216, 10^6 cells per ml, 20 hours, read-out: MIC
[4] = S68, Ps. aeruginosa S-68, 10^6 cells per ml, 37° C., 20 hours, read-out: MIC
[5] = St. aureus FDA209P, 10^6 cells per ml, 37° C., 20 hours, read-out: MIC
[6] = T111, 10^6 cells per ml, 20 hours, read-out: MIC
[7] = Ps. aeruginosa IFO3445, 10^6 cells per ml, 37° C., 20 hours, read-out: MIC
[8] = Ent. cloacae IID977, 10^6 cells per ml, 37° C., 20 hours, read-out: MIC
[9] = E. coli TK-3, penicillinase-producing, 10^6 cells per ml, read-out: MIC
[10] = St. aureus F-137, penicillinase-producing, 10^6 cells per ml, read-out: MIC
[11] = Aci. antitratus A-6, 10^6 cells per ml, 37° C., 20 hours, read-out: MIC
[12] = 20 h, Pro. vulgaris GN76, cephalospolinase-producing, 10^6 cells per ml, read-out: MIC

SMILES | MIC (E. coli TK-111; [1]) [µg/mL] | MIC (E. coli NIHJ JC-2; [2]) [µg/mL] | MIC (Pro. vulgaris GN3027) [µg/mL] | MIC (Pro. morganii T-216; [3]) [µg/mL] | MIC (Ps. aeruginosa S-68; [4]) [µg/mL] | MIC (St. aureus FDA209P; [5]) [µg/mL] | MIC (Kl. pneumoniae Y-50) [µg/mL] | MIC (Pro. mirabilis T-111; [6]) [µg/mL] | MIC (Kl. pneumoniae Y-41) [µg/mL] | MIC (Ps. aeruginosa IFO3445; [7]) [µg/mL] | MIC (Ent. cloacae IID977; [8]) [µg/mL] | MIC (Ps. aeruginosa GN918**; 20 h, read-out: MIC) [µg/mL] | MIC (Pro. vulgaris GN76**; GN76, 20 h) [µg/mL] | MIC (E. coli GN5482**) [µg/mL] | MIC (Kl. pneumoniae Y-4*) [µg/mL] | MIC (Ps. aeruginosa GN3379*; 20 h, read-out: MIC) [µg/mL] | MIC (E. coli TK-3*; [9]) [µg/mL] | MIC (Ps. aeruginosa S-68; S68, 20 h) [µg/mL] | MIC (St. aureus F-137*; [10]) [µg/mL] | MIC (Aci. antitratus A-6; [11]) [µg/mL] | further results
CN(C)c1ccc(-c2cc(=O)c(C(=O)O)cn2-c2ccc(OS(=O)(=O)O)cc2)cc1 | 0.78 (≈ 1.81 µM) | 1.56 (≈ 3.62 µM) | 1.56 (≈ 3.62 µM) | 12.5 (≈ 29 µM) | 25 (≈ 58.1 µM) | 0.78 (≈ 1.81 µM) | 3.13 (≈ 7.27 µM) | 25 (≈ 58.1 µM) | 25 (≈ 58.1 µM) | 50 (≈ 116 µM) | 12.5 (≈ 29 µM) | 12.5 (≈ 29 µM) | 3.13 (≈ 7.27 µM) | 0.2 (≈ 0.465 µM) | 25 (≈ 58.1 µM) | 50 (≈ 116 µM) | 6.25 (≈ 14.5 µM) |  |  |  | MIC (Aci. antitratus A-6): 3.13 µg/mL (≈ 7.27 µM); MIC (St. aureus F-137*): 3.13 µg/mL (≈ 7.27 µM)
O=C(O)c1cn(-c2ccc(O)cc2)c(C2CC=CCC2)cc1=O (stereo not drawn) |  |  | 0.39 (≈ 1.25 µM) | 3.13 (≈ 10.1 µM) |  |  | 1.56 (≈ 5.01 µM) |  | 6.25 (≈ 20.1 µM) |  |  |  | 1.56 (≈ 5.01 µM) | 0.39 (≈ 1.25 µM) | 12.5 (≈ 40.1 µM) | 25 (≈ 80.3 µM) |  | 12.5 (≈ 40.1 µM) | 3.13 (≈ 10.1 µM) |  | MIC (E. coli TK-111): 1.56 µg/mL (≈ 5.01 µM); MIC (E. coli NIHJ JC-2): 6.25 µg/mL (≈ 20.1 µM); MIC (St. aureus FDA209P): 1.56 µg/mL (≈ 5.01 µM); MIC (Pro. mirabilis T-111; T111, 20 h, 10^6 cells per ml): 12.5 µg/mL (≈ 40.1 µM); MIC (Ps. aeruginosa IFO3445; IFO3445, 20 h): 12.5 µg/mL (≈ 40.1 µM); MIC (Ent. cloacae IID977): 6.25 µg/mL (≈ 20.1 µM); MIC (Aci. antitratus A-6): 6.25 µg/mL (≈ 20.1 µM); MIC (Ps. aeruginosa GN918**; GN918, 20 h): 1.56 µg/mL (≈ 5.01 µM); MIC (E. coli TK-3*): 6.25 µg/mL (≈ 20.1 µM)
Cc1cc(O)ccc1-n1cc(C(=O)O)c(=O)cc1C1=CCCC1 | 0.2 (≈ 0.642 µM) | 0.78 (≈ 2.51 µM) | 0.1 (≈ 0.321 µM) |  |  | 0.78 (≈ 2.51 µM) | 0.39 (≈ 1.25 µM) | 3.13 (≈ 10.1 µM) | 1.56 (≈ 5.01 µM) |  |  | 3.13 (≈ 10.1 µM) |  | 0.1 (≈ 0.321 µM) | 6.25 (≈ 20.1 µM) | 25 (≈ 80.3 µM) |  | 6.25 (≈ 20.1 µM) | 0.78 (≈ 2.51 µM) | 0.78 (≈ 2.51 µM) | MIC (Pro. morganii T-216; T216, 20 h, 10^6 cells per ml): 1.56 µg/mL (≈ 5.01 µM); MIC (Ps. aeruginosa IFO3445; IFO3445, 20 h): 6.25 µg/mL (≈ 20.1 µM); MIC (Ent. cloacae IID977): 1.56 µg/mL (≈ 5.01 µM); MIC (Pro. vulgaris GN76**; [12]): 0.78 µg/mL (≈ 2.51 µM); MIC (E. coli TK-3*): 1.56 µg/mL (≈ 5.01 µM)
CC=Cc1cc(=O)c(C(=O)O)cn1-c1ccc(O)cc1C |  | 3.13 (≈ 11 µM) | 0.39 (≈ 1.37 µM) | 3.13 (≈ 11 µM) |  | 6.25 (≈ 21.9 µM) | 1.56 (≈ 5.47 µM) | 25 (≈ 87.6 µM) | 12.5 (≈ 43.8 µM) | 25 (≈ 87.6 µM) | 6.25 (≈ 21.9 µM) | 6.25 (≈ 21.9 µM) | 1.56 (≈ 5.47 µM) | 0.39 (≈ 1.37 µM) | 25 (≈ 87.6 µM) | 25 (≈ 87.6 µM) | 3.13 (≈ 11 µM) | 12.5 (≈ 43.8 µM) |  | 6.25 (≈ 21.9 µM) | MIC (E. coli TK-111): 1.56 µg/mL (≈ 5.47 µM); MIC (St. aureus F-137*): 12.5 µg/mL (≈ 43.8 µM)
Cc1cc(O)ccc1-n1cc(C(=O)O)c(=O)cc1CCc1ccccc1 | 0.39 (≈ 1.12 µM) | 3.13 (≈ 8.96 µM) | 0.1 (≈ 0.286 µM) | 3.13 (≈ 8.96 µM) |  | 0.78 (≈ 2.23 µM) | 1.56 (≈ 4.46 µM) |  | 12.5 (≈ 35.8 µM) | 25 (≈ 71.6 µM) | 6.25 (≈ 17.9 µM) | 3.13 (≈ 8.96 µM) | 1.56 (≈ 4.46 µM) | 0.2 (≈ 0.572 µM) | 12.5 (≈ 35.8 µM) |  | 3.13 (≈ 8.96 µM) | 12.5 (≈ 35.8 µM) | 0.78 (≈ 2.23 µM) | 0.39 (≈ 1.12 µM) | MIC (Pro. mirabilis T-111; T111, 20 h, 10^6 cells per ml): 12.5 µg/mL (≈ 35.8 µM); MIC (Ps. aeruginosa GN3379*; GN3379, 20 h): 12.5 µg/mL (≈ 35.8 µM)
CC(=O)Oc1ccc(-n2cc(C(=O)OCC(O)CO)c(=O)cc2-c2ccc(N(C)C)cc2)cc1 (stereo not drawn) | 0.78 (≈ 1.67 µM) |  | 0.78 (≈ 1.67 µM) | 12.5 (≈ 26.8 µM) | 25 (≈ 53.6 µM) | 1.56 (≈ 3.34 µM) | 3.13 (≈ 6.71 µM) | 25 (≈ 53.6 µM) | 25 (≈ 53.6 µM) | 50 (≈ 107 µM) | 6.25 (≈ 13.4 µM) | 12.5 (≈ 26.8 µM) |  | 0.1 (≈ 0.214 µM) | 25 (≈ 53.6 µM) | 50 (≈ 107 µM) | 6.25 (≈ 13.4 µM) |  | 1.56 (≈ 3.34 µM) | 1.56 (≈ 3.34 µM) | MIC (E. coli NIHJ JC-2): 3.13 µg/mL (≈ 6.71 µM); MIC (Pro. vulgaris GN76**; [12]): 6.25 µg/mL (≈ 13.4 µM)
